Assay results from US8703172B2, “Sphingolipids for improvement of the composition of the intestinal flora” (Nederlandse Organizatie voor …, priority 2003, dated 2014).
In brackets after ≈: the same amount, converted by molar mass. Entries after “also recorded” stand apart in the source; their conditions may differ.

What was measured:
Clostridium perfringens = experiment: microbe, parasite or virus in culture; type: cell-based; conditions: 72 h, read-out: MIC, C. perfringens
[1] = tested on: Lactobacillus acidophilus; experiment: MIC on agar plates (MRSA)
Clostridium difficile [2] = experiment: MIC on agar plates (RCBA); type: cell-based; conditions: Clostridioides difficile; RCBA agar plate, anaerobic, 72 hours at 30° C.
Enterobacteriaceae = experiment: Antimicrobial activity in TIM-2 large intestine model; type: cell-based
Enterococcus hirae = experiment: MIC on agar plates (MRSA)
[3] = tested on: Lactobacillus acidophilus; experiment: Antimicrobial activity in small intestine model TIM-1; type: cell-based; conditions: 20 μg/ml of sphingolipid; lumen samples plated on Rogosa agar
[4] = tested on: Lactobacillus acidophilus; experiment: Survival in liquid ileum medium; conditions: within 200 minutes
Enterococcus = experiment: Antimicrobial activity in TIM-2 large intestine model; type: cell-based
Bacillus cereus = experiment: MIC on agar plates (TSA)
Bacteroides fragilis = experiment: MIC on agar plates (RCBA); type: cell-based; conditions: RCBA agar plate, anaerobic, 72 hours at 30° C.
Salmonella enteritidis = experiment: MIC on agar plates (TSA); type: cell-based; conditions: TSA agar plate, aerobic, 48 hours at 30° C.
Clostridium spp. = experiment: MIC on agar plates (RCBA); type: cell-based
Pseudomonas aeruginosa = experiment: MIC on agar plates (TSA); type: cell-based; conditions: TSA agar plate, aerobic, 48 hours at 30° C.
[5] = tested on: Streptococcus suis type 2; experiment: MIC on agar plates (TSA)
Clostridium difficile [6] = experiment: Antimicrobial activity in TIM-2 large intestine model; type: cell-based
Bifidobacterium = experiment: as above; type: cell-based
[7] = in vivo
Procedure: (§1) Because the sphingolipids need to be transported together with the food to the small and large intestines to be able to be active there, the transport of phytosphingosine and sphinganine in the stomach and small intestine model TIM-1 was tested. Also, the transport of phytosphingosine in a fistulated pig was tested after the animal had been fed with feed containing phytosphingosine (1 wt. %). In a fistulated pig, the small intestine is uncoupled from the large intestine so that the digested feed at the end of the small intestine can be collected.
To investigate in an in vivo system whether sphingolipids from the food do actually arrive in the large intestine and are not prematurely absorbed or metabolized, pig basic feed to which phytosphingosine (1 wt. %) was added was fed to a fistulated pig.
The feed was prepared by mixing a solution of phytosphingosine in ethanol with the feed and drying it in vacuo. Every hour, the intestinal content (chymus) at the end of the small intestine was separately collected and frozen dry. The dry intestinal contents were then extracted with chloroform/methanol (2:1, v/v). The extracts were then filtered over glass wool and evaporated under a nitrogen flow. The residues were examined for the presence of phytosphingosine, sphingosine, sphinganine and sphingomyelin by means of LC-MS.

Leuconostoc carnosum = experiment: MIC on agar plates (MRSA)
Bacteroides = experiment: Antimicrobial activity in TIM-2 large intestine model; type: cell-based
[8] = type: in vitro ADME
Procedure: as §1
To investigate whether sphingolipids from the food are transported through the small intestine without being absorbed or being chemically or enzymatically modified in the small intestine, phytosphingosine and sphinganine were mixed in a standard Tim-1 food and exposed to a TIM-1 treatment. Of each sphingolipid, 5 mg per 100 grams of food (0.005 wt. %) in the food were tested. After starting the TIM-1 digestion processes in the TIM-1 stomach, at the fixed times, lumen samples of 100 grams were taken. Also, dialysate samples were taken from the material which was transported through the semi-permeable TIM-1 membrane. The dialysate samples varied between 1428 and 1122 grams. […] Next to the samples, the exposure time in minutes is given.

[9] = tested on: sulfite-reducing Clostridium; experiment: Antimicrobial activity in TIM-2 large intestine model
Lactobacillus sake = experiment: MIC on agar plates (MRSA)
Lactobacillus casei = experiment: MIC on agar plates (MRSA)
Bifidobacterium spp. = experiment: MIC on agar plates (RCBA); type: cell-based; conditions: RCBA agar plate, anaerobic, 72 hours at 30° C.
Gram-positive bacteria = experiment: Antimicrobial activity on agar plates, summary for Gram-positive bacteria; type: cell-based
Clostridium difficile [10] = experiment: Survival in liquid ileum medium; type: cell-based; conditions: within 200 minutes
Fusobacterium nucleatum = experiment: MIC on agar plates (RCBA); type: cell-based; conditions: RCBA agar plate, anaerobic, 72 hours at 30° C.
[11] = tested on: Bifidobacterium adolescentis; experiment: MIC on agar plates (RCBA); type: cell-based; conditions: RCBA agar plate, anaerobic, 72 hours at 30° C.
Clostridium difficile [12] = experiment: Antimicrobial activity in small intestine model TIM-1; type: cell-based; conditions: 20 μg/ml of sphingolipid; lumen samples plated on Clostridium difficile agar
Lactobacillus = experiment: Antimicrobial activity in TIM-2 large intestine model; type: cell-based
Listeria monocytogenes = experiment: MIC on agar plates (TSA)
[13] = rat, in vivo; cited from earlier work
bacteria tested = experiment: Antimicrobial activity on agar plates, summary for the bacteria tested; type: cell-based; conditions: agar plates
[14] = ileum medium, absence of bile, 10 and 50 μg/ml
[15] = 60 min, 5 mg per 100 grams of food
[16] = 120 min, 5 mg per 100 grams of food
[17] = 180 min, 5 mg per 100 grams of food
[18] = 240 min, 5 mg per 100 grams of food
[19] = MRSA agar plate, anaerobic, 72 hours at 30° C.
[20] = TSA agar plate, aerobic, 48 hours at 30° C.

Compound: CCCCCCCCCCCCCC[C@@H](O)[C@@H](O)[C@@H](N)CO [Phytosphingosine, phytosphingosine]
- MIC (Clostridium perfringens): 5.9 µg/mL (≈ 18.6 µM)
- MIC ([1]; Lactobacillus acidophilus, 72 h, read-out: MIC, L. acidophilus): > 36.5 µg/mL
- MIC (Clostridium difficile [2]): 5.7 µg/mL (≈ 18 µM)
- Killing of other bacteria: Enterobacteriaceae (Enterobacteriaceae; 10 μg/ml): no significant killing
- Enterobacteriaceae decrease by a factor of (Enterobacteriaceae; 50 μg/ml): 77
- MIC (Enterococcus hirae; Enterococcus hirae, 72 h, read-out: MIC, E. hirae): > 36.5 µg/mL
- Antimicrobial activity against Lactobacillus acidophilus in TIM-1 [3]: no demonstrable antimicrobial activity
- Killing of Lactobacillus acidophilus [4, 14]: virtually completely killed
- Killing of Lactobacillus acidophilus ([4]; liquid cultures, 50 ppm): for the larger part killed
- Killing of other bacteria: Enterococcus (Enterococcus; 10 μg/ml): no significant killing
- Enterococcus decreases by a factor of (Enterococcus; 50 μg/ml): 5
- MIC (Bacillus cereus; Bacillus cereus, 48 h, read-out: MIC, B. cereus): 6.3 µg/mL (≈ 19.8 µM)
- MIC (Bacteroides fragilis; Bacteroides fragilis, read-out: MIC, B. fragilis): 2.1 µg/mL (≈ 6.61 µM)
- MIC (Salmonella enteritidis; Salmonella enterica, ENTERITIDIS, read-out: MIC, S. enteritidis): > 731 µg/mL
- MIC (Clostridium spp.; Clostridium, 72 h, read-out: MIC, C. spp.): 1.1 µg/mL (≈ 3.46 µM)
- MIC (Pseudomonas aeruginosa; Pseudomonas aeruginosa, read-out: MIC, P. aeruginosa): > 731 µg/mL
- MIC ([5]; Streptococcus suis, TYPE2, 48 h, read-out: MIC, S. suis type 2): 6.3 µg/mL (≈ 19.8 µM)
- Killing of C. difficile (Clostridium difficile [6]; TIM-2, 10 μg/ml): no significant killing
- Decrease of C. difficile (Clostridium difficile [6]; TIM-2, 50 μg/ml, within 12 hours): 550 fold
- Selectivity of antimicrobial activity against Clostridium difficile (Clostridium difficile [6]; TIM-2 large intestine model): selective antimicrobial activity
- Killing of other bacteria: Bifidobacterium (Bifidobacterium; 10 μg/ml): no significant killing
- Bifidobacterium decreases by a factor of (Bifidobacterium; 50 μg/ml): 55
- Health of the pig [7]: remained healthy
- Maximum phytosphingosine in intestinal contents at the end of the small intestine ([7]; pig): 76 μg/g of dry intestinal contents
- Time from which phytosphingosine leaves the small intestine ([7]; pig): from two hours after feeding
- Time of the maximum after feeding ([7]; pig): 9 h
- MIC (Leuconostoc carnosum; 72 h, read-out: MIC, L. carnosum): < 0.3 µg/mL
- Killing of other bacteria: Bacteroides (Bacteroides; 10 μg/ml): no significant killing
- Bacteroides decreases by a factor of (Bacteroides; 50 μg/ml): 10
- Transport through the TIM-1 system [8]: transported to the large intestine to a sufficient extent
- Concentration in TIM-1 sample: Dialysate ileum 0-120′ ([8]; 5 mg per 100 grams of food): 0 ng/mL
- Concentration in TIM-1 sample: Dialysate ileum 120-240′ ([8]; 5 mg per 100 grams of food): 0 ng/mL
- Concentration in TIM-1 sample: Dialysate jejunum 0-120′ ([8]; 5 mg per 100 grams of food): 0 ng/mL
- Concentration in TIM-1 sample: Dialysate jejunum 120-240′ ([8]; 5 mg per 100 grams of food): 0 ng/mL
- Concentration in TIM-1 sample: Food ([8]; 5 mg per 100 grams of food): 5190 ng/mL
- Concentration in TIM-1 sample: Residue jejunum/ileum + dialysis fluid ([8]; 5 mg per 100 grams of food): 3320 ng/mL
- Concentration in TIM-1 sample: Residue stomach/duodenum + dialysis fluid ([8]; 5 mg per 100 grams of food): 1030 ng/mL
- Share of the amount used found in the samples (rough mass balance) ([8]; 5 mg per 100 grams of food): approx. 20%
- Concentration in TIM-1 sample: Lumen ileum 60′ [8, 15]: 200 ng/mL
- Concentration in TIM-1 sample: Lumen jejunum 60′ [8, 15]: 1470 ng/mL
- Concentration in TIM-1 sample: Lumen ileum 120′ [8, 16]: 2230 ng/mL
- Concentration in TIM-1 sample: Lumen jejunum 120′ [8, 16]: 1790 ng/mL
- Concentration in TIM-1 sample: Lumen ileum 180′ [8, 17]: 2220 ng/mL
- Concentration in TIM-1 sample: Lumen jejunum 180′ [8, 17]: 3410 ng/mL
- Concentration in TIM-1 sample: Lumen ileum 240′ [8, 18]: 1960 ng/mL
- Concentration in TIM-1 sample: Lumen jejunum 240′ [8, 18]: 4100 ng/mL
- Killing of other bacteria: sulfite-reducing clostridia ([9]; 10 μg/ml): no significant killing
- Sulfite-reducing Clostridium decreases by a factor of ([9]; 50 μg/ml): 36
- MIC (Lactobacillus sake; Latilactobacillus sakei, 72 h, read-out: MIC, L. sake): 2.2 µg/mL (≈ 6.93 µM)
- MIC (Lactobacillus casei; Lacticaseibacillus casei, 72 h, read-out: MIC, L. casei): > 36.5 µg/mL
- MIC (Bifidobacterium spp.; Bifidobacterium, read-out: MIC, Bif. spp.): 0.9 µg/mL (≈ 2.83 µM)
- Antimicrobial activity against Gram-positive bacteria (Gram-positive bacteria): killed; also recorded: strong antimicrobial activity
- Killing of Clostridium difficile (Clostridium difficile [10]; [14]): virtually completely killed
- Killing of Clostridium difficile (Clostridium difficile [10]; liquid cultures, 50 ppm): for the larger part killed
- MIC (Fusobacterium nucleatum; Fusobacterium nucleatum, read-out: MIC, F. nucleatum): < 6.3 µg/mL
- MIC ([11]; Bifidobacterium adolescentis, read-out: MIC, B. adolescentis): 8 µg/mL (≈ 25.2 µM)
- Antimicrobial activity against Clostridium difficile in TIM-1 (Clostridium difficile [12]): no demonstrable antimicrobial activity
- Killing of other bacteria: Lactobacillus (Lactobacillus; 10 μg/ml): no significant killing
- Lactobacillus decreases by a factor of (Lactobacillus; 50 μg/ml): 24
- MIC (Listeria monocytogenes; Listeria monocytogenes, 48 h, read-out: MIC, L. monocytogenes): 6.3 µg/mL (≈ 19.8 µM)

Compound: sphingomyelin
- MIC, L. acidophilus ([1]; anaerobic, 72 hours at 30° C.): >731 µg/mL
- MIC, E. hirae (Enterococcus hirae; [19]): >731 µg/mL
- MIC, B. cereus (Bacillus cereus; [20]): >731 µg/mL
- MIC, B. fragilis (Bacteroides fragilis): >731 µg/mL
- Share of the sphingomyelin fed that is found in the feces [13]: approximately 25%
- MIC, S. enteritidis (Salmonella enteritidis): >731 µg/mL
- MIC, C. spp. (Clostridium spp.; RCBA agar plate, anaerobic, 72 hours at 30° C.): >731 µg/mL
- MIC, P. aeruginosa (Pseudomonas aeruginosa): >731 µg/mL
- MIC, S. suis type 2 [5, 20]: >731 µg/mL
- Presence in the intestinal contents at the end of the small intestine ([7]; pig): larger amounts
- MIC, L. carnosum (Leuconostoc carnosum; agar plate, anaerobic, 72 hours at 30° C.): >731 µg/mL
- MIC, L. sake (Lactobacillus sake; anaerobic, 72 hours at 30° C.): >731 µg/mL
- MIC, L. casei (Lactobacillus casei; [19]): >731 µg/mL
- MIC, Bif. spp. (Bifidobacterium spp.): >731 µg/mL
- Inhibition of the bacteria tested (bacteria tested): do not inhibit any of the bacteria tested
- MIC, F. nucleatum (Fusobacterium nucleatum): >731 µg/mL
- MIC, B. adolescentis [11]: >731 µg/mL
- MIC, L. monocytogenes (Listeria monocytogenes; [20]): >731 µg/mL
